Measurements from patent publication US6967196B1, “Sulfonamide compounds and uses thereof” (Bristol-Myers Squibb Company, priority 1999, dated 2005).
Where a name gives a salt, the structure may show the parent alone.

system: amyloid β production in transfected H4 (human neuroglioma) cells stably expressing APP constructs; assay: In vitro cell-based assay of inhibitors of amyloid β production (ELISA); details: Homo sapiens, 16 h, transfected H4 cells expressing APP, approximately 16 hours incubation, amyloid β in medium by ELISA; read-out: ACTIVITY (IC50, inhibition of amyloid β production)
Procedure, shortened: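 Aβ secreted into the medium was read by sandwich ELISA (monoclonal capture for the Aβ C-terminus, polyclonal detection for the N-terminus) and calibrated on a standard curve. Before this, APP-expressing H4 cells were exposed to compound for ~16 h at an initial 10-100 μM, with actives then retested in dose-response.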

IC50 [nM] | Compound
> 500 | CC(CCCC(C)(C)O)NC(=O)[C@@H](C)N(c1cc(Cl)ccc1F)S(=O)(=O)c1ccc(Cl)cc1 (some centres unmarked) [Example 1335]
> 500 | C[C@H](C(=O)NCCC(c1ccccc1)c1ccccc1)N(c1cc(Cl)ccc1F)S(=O)(=O)c1ccc(Cl)cc1 [Example 1302]
≤ 25 | C[C@H](COC(=O)NC(C)(C)C)N(c1cc(Cl)ccc1CO)S(=O)(=O)c1ccc(Cl)cc1 [Example 1282]

same assay, conditions: Homo sapiens, 16 h, transfected H4 cells stably expressing APP; approximately 16 hours incubation; amyloid β in medium by ELISA; Table B; read-out: ACTIVITY (IC50, inhibition of amyloid β production)

IC50 [nM] | Compound
50 to 100 | C[C@H](c1ccccc1CCC(=O)NC1CCCCC1)N(c1cc(F)ccc1F)S(=O)(=O)c1ccc(Cl)cc1 [Example 401, 3-[2-((1R)-1-{[(4-chlorophenyl)sulfonyl]-2,5-difluoroanilino}ethyl)phenyl]-N-cyclohexylpropanamide]

same assay, conditions: Homo sapiens, 16 h, transfected H4 cells stably expressing APP; approximately 16 hours incubation; amyloid β in medium by ELISA; read-out: ACTIVITY (IC50, inhibition of amyloid β production)

IC50 [nM] | Compound
> 500 | O=S(=O)(c1ccc(Cl)cc1)N(Cc1ccccc1OCCCN1CCCCC1)Cc1c(F)c(F)c(F)c(F)c1F [Example 974, 4-chloro-N-(2,3,4,5,6-pentafluorobenzyl)-N-{2-[3-(1-piperidinyl)propoxy]benzyl}benzenesulfonamide hydrochloride]
> 500 | C[C@H](c1ccc(F)cc1CCCC(=O)NN(C)C)N(c1cc(F)ccc1F)S(=O)(=O)c1ccc(Cl)cc1 [Example 1078, 4-chloro-N-(2,5-difluorophenyl)-N-((1R)-1-{2-[4-(2,2-dimethylhydrazino)-4-oxobutyl]-4-fluorophenyl}ethyl)benzenesulfonamide]
> 500 | CC(c1ccccc1O)N(c1cc(F)ccc1F)S(=O)(=O)c1ccc(Cl)cc1 (centres unmarked) [Example 1052, 4-chloro-N-(2,5-difluorophenyl)-N-[1-(2-hydroxyphenyl)ethyl]benzenesulfonamide]
> 500 | O=C(c1ccc(F)cc1)N1CCCCC1CCOc1ccccc1CN(c1cc(F)ccc1F)S(=O)(=O)c1ccc(Cl)cc1 (centres unmarked) [Example 946, 4-chloro-N-(2,5-difluorophenyl)-N-(2-{2-[1-(4-fluorobenzoyl)-2-piperidinyl]ethoxy}benzyl)benzenesulfonamide]
100 to 500 | CCN(CC)C(=O)N(C)CCCOc1ccccc1CN(c1cc(F)ccc1F)S(=O)(=O)c1ccc(Cl)cc1 [Example 849, 4-chloro-N-(2-{3-[[(diethylamino)carbonyl](methyl)amino]propoxy}benzyl)-N-(2,5-difluorophenyl)benzenesulfonamide]

same assay, conditions: Table B; transfected H4 cells stably expressing APP; approximately 16 hours incubation; amyloid β in medium by ELISA; read-out: ACTIVITY (inhibitory concentration IC50, inhibition of amyloid β production)

Compound | IC50 [nM]
O=S(=O)(c1ccc(Cl)cc1)N(Cc1cc(Cl)ccc1OCCCN1CCCCC1)c1ccccc1 [Example 230, 4-Chloro-N-{5-chloro-2-[3-(1-piperidinyl)propoxy]benzyl}-N-phenylbenzenesulfonamide Hydrochloride] | 25 to 50

same assay, conditions: transfected H4 cells stably expressing APP constructs; approximately 16 hours incubation; amyloid β in medium by ELISA; read-out: ACTIVITY (IC50, inhibition of amyloid β production)

Compound | IC50 [nM]
CC[S+]([O-])CCC[C@@H](C)N(c1cc(Cl)ccc1Cl)S(=O)(=O)c1ccc(Cl)cc1 (stereo partly drawn) [Example 1172, 4-chloro-N-[2,5-dichlorophenyl]-N-[1(R)-methyl-(4-ethylsulfinyl)butyl]benzenesulfonamide] | ≤ 25
C[C@H](CCS(=O)(=O)CC(=O)O)N(c1cc(Cl)ccc1Cl)S(=O)(=O)c1ccc(Cl)cc1 [Example 1197, (6R)-6-[(2,5-dichlorophenyl)-[(4-chlorophenyl)sulfonyl]-amino]-3-thioheptanoic acid, 3,3-dioxide] | > 500
C[C@H](CCCNC(=O)[C@H](O)c1ccccc1)N(c1cc(Cl)ccc1Cl)S(=O)(=O)c1ccc(Cl)cc1 [Example 1129] | 50 to 100
C[C@H](COC(=O)N1CCC[C@H]1CO)N(c1cc(Cl)ccc1Cl)S(=O)(=O)c1ccc(Cl)cc1 [Example 1241] | ≤ 25
CCSCC[C@@H](C)N(c1cc(Cl)ccc1Cl)S(=O)(=O)c1ccc(Cl)cc1 [Example 1189, 4-chloro-N-[2,5-dichlorophenyl]-N-[1(R)-methyl-(3-ethylthio)propyl]benzenesulfonamide] | 100 to 500
methyl(6R)-6-[(2,5-dichlorophenyl)-[(4-chlorophenyl)sulfonyl]-amino]-3-thioheptanoic [Example 1185] | 25 to 50
CC(C)CSCCC[C@@H](C)N(c1cc(Cl)ccc1Cl)S(=O)(=O)c1ccc(Cl)cc1 [Example 1188] | 100 to 500
C[C@H](CCC[S+](C)[O-])N(c1cc(F)ccc1F)S(=O)(=O)c1ccc(Cl)cc1 (stereo partly drawn) [Example 1175, 4-chloro-N-[2,5-difluorophenyl]-N-[1(R)-methyl-(4-methylsulfinyl)butyl]benzenesulfonamide] | ≤ 25

same assay, conditions: transfected H4 cells stably expressing APP; approx. 16 h incubation; amyloid β in medium by ELISA; read-out: ACTIVITY (IC50, inhibition of amyloid β production)

IC50 [nM] | Compound
100 to 500 | N-{4-[2-(1-{[(4-chlorophenyl)sulfonyl]-2,5-difluoroanilino}ethyl)phenoxy]butyl}-2-ethyl-N-methylhexanamide [Example 676]
100 to 500 | N-{3-[2-({[(4-chlorophenyl)sulfonyl]-2,5-difluoroanilino}methyl)phenoxy]propyl}-N,2-dimethylbenzamide [Example 680]
100 to 500 | N-{3-[2-(1-{[(4-chlorophenyl)sulfonyl]-2,5-difluoroanilino}ethyl)phenoxy]propyl}-N,4-dimethylbenzamide [Example 741]
100 to 500 | N-{4-[2-(1-{[(4-chlorophenyl)sulfonyl]-2,5-difluoroanilino}ethyl)phenoxy]butyl}-N-ethylbenzamide [Example 767]
100 to 500 | 2,2,2-trichloro-N-{2-[2-(1-{[(4-chlorophenyl)sulfonyl]-2,5-difluoroanilino}ethyl)phenoxy]ethyl}-N-ethylacetamide [Example 744]
100 to 500 | N-{2-[2-(1-{[(4-chlorophenyl)sulfonyl]-2,5-difluoroanilino}ethyl)phenoxy]ethyl}-N-ethyl-1-adamantanecarboxamide [Example 769]
100 to 500 | N-{3-[2-(1-{[(4-chlorophenyl)sulfonyl]-2,5-difluoroanilino}ethyl)phenoxy]propyl}-3-fluoro-N-methylbenzamide [Example 699]

Compound | IC50 [nM]
CC(c1ccccc1OCCCN(C)C(=O)c1cc([N+](=O)[O-])cc([N+](=O)[O-])c1)N(c1cc(F)ccc1F)S(=O)(=O)c1ccc(Cl)cc1 (centres unmarked) [Example 668, N-{3-[2-(1-{[(4-chlorophenyl)sulfonyl]-2,5-difluoroanilino}ethyl)phenoxy]propyl}-N-methyl-3,5-dinitrobenzamide] | 100 to 500

same assay, conditions: transfected H4 cells stably expressing APP; approximately 16 hours incubation; amyloid β in medium by ELISA; Table B; read-out: ACTIVITY (IC50, inhibition of amyloid β production)

Compound | IC50 [nM]
O=S(=O)(c1ccc(Cl)cc1)N(Cc1cc(Cl)ccc1OCCCN1CCC(O)CC1)c1ccccc1 [Example 309, 4-Chloro-N-{5-chloro-2-[3-(4-hydroxy-1-piperidinyl)propoxy]benzyl}-N-phenylbenzenesulfonamide Hydrochloride] | 50 to 100

same assay, conditions: transfected H4 cells stably expressing APP; approximately 16 hours incubation; amyloid β in medium by ELISA; read-out: ACTIVITY (IC50, inhibition of amyloid β production)

Compound | IC50 [nM]
2,2,2-trichloro-N-{3-[2-({[(4-chlorophenyl)sulfonyl]-2,5-difluoroanilino}ethyl)phenoxy]propyl(methyl)carbamate [Example 876] | 100 to 500
S-methyl 2-[2-(1-{[(4-chlorophenyl)sulfonyl]-2,5-difluoroanilino}ethyl)phenoxy]ethyl(methyl)thiocarbamate [Example 983] | > 500

Results, then the compound that gave them:

IC50 [nM] | Compound
> 500 | (2E)-3-[2-({[(4-chlorophenyl)sulfonyl]anilino}methyl)phenyl]-N-methoxy-N-methyl-2-propenamide [Example 1034]
> 500 | N-{3-[2-({[(4-chlorophenyl)sulfonyl]-2,5-difluoroanilino}methyl)phenoxy]propyl}-N-methyl-4-(trifluoromethyl)benzamide [Example 898]
> 500 | N-{3-[2-({[(4-chlorophenyl)sulfonyl]-2,5-difluoroanilino}methyl)phenoxy]propyl}-N-methyl-3-(trifluoromethyl)benzamide [Example 891]
